Source: patent publication US20240269139A1, “COMPOUNDS FOR TARGETED PROTEIN DEGRADATION OF KINASES” (DANA-FARBER CANCER INSTITUTE, INC., priority 2020, published 2024)
Where two headings read alike, the source gives them in different places.

How the values were obtained:
Type in all cases: cell-based
[1] = target: protein kinases (human kinome) (Homo sapiens, UniProt P31749); details: for logFC: AKT1 (P31749)
[2] = target: protein kinases (human kinome) (Homo sapiens, UniProt P41743); details: experiment wp056
[3] = target: protein kinases (human kinome) (Homo sapiens, UniProt Q01415); details: protein GALK2 (Q01415-1); experiment wp056; down
[4] = target: protein kinases (human kinome) (Homo sapiens, UniProt Q8TCT0); details: protein CERK (Q8TCT0); experiment wp131; down
protein kinases (human kinome) (Homo sapiens, UniProt Q8TCT0), sequence (Q8TCT0 whole entry): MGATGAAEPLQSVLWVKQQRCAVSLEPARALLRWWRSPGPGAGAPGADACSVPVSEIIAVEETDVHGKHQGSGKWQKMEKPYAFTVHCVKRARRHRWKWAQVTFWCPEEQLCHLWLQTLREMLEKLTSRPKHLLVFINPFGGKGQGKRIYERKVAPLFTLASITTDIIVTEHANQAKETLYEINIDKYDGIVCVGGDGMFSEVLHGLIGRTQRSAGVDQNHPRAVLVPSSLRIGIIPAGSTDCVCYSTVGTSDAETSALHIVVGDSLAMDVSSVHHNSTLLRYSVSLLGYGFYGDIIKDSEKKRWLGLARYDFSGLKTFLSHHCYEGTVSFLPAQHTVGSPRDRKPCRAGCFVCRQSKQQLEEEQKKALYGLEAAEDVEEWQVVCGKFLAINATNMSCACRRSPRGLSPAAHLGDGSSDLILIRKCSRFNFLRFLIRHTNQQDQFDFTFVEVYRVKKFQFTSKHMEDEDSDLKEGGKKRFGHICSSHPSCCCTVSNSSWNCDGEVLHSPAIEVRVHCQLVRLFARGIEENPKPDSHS

[5] = target: protein kinases (human kinome) (Homo sapiens, UniProt P29317); details: for logFC: EPHA2 (P29317)
protein kinases (human kinome) (Homo sapiens, UniProt P29317), sequence (P29317 24-976): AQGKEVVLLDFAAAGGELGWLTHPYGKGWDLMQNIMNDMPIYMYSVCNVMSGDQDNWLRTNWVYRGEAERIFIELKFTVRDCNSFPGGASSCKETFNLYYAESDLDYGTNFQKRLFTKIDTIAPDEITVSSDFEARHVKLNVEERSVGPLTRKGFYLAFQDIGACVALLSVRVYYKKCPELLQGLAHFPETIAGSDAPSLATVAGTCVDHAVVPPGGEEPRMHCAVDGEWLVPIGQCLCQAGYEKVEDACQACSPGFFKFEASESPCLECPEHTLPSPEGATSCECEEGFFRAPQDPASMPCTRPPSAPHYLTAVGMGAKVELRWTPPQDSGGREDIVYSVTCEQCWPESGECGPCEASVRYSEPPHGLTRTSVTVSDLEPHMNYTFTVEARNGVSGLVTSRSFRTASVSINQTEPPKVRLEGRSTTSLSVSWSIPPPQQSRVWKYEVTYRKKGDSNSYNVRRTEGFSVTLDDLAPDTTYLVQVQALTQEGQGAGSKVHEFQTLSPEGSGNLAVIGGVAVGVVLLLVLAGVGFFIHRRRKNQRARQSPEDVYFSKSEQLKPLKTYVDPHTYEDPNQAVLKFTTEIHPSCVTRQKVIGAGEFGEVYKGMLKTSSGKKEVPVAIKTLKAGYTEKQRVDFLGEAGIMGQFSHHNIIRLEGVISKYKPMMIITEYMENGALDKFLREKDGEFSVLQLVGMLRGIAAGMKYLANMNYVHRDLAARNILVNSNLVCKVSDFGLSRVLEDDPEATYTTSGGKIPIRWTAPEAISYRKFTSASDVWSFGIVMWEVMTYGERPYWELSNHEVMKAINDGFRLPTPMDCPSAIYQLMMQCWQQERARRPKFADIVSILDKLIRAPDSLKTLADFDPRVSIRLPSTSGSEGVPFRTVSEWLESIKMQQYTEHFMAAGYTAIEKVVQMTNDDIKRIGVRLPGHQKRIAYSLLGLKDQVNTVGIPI

[6] = target: protein kinases (human kinome) (Homo sapiens, UniProt P45983); details: for logFC MAPK8 (P45983): Experiment wp152
protein kinases (human kinome) (Homo sapiens, UniProt P45983), sequence (P45983 whole entry): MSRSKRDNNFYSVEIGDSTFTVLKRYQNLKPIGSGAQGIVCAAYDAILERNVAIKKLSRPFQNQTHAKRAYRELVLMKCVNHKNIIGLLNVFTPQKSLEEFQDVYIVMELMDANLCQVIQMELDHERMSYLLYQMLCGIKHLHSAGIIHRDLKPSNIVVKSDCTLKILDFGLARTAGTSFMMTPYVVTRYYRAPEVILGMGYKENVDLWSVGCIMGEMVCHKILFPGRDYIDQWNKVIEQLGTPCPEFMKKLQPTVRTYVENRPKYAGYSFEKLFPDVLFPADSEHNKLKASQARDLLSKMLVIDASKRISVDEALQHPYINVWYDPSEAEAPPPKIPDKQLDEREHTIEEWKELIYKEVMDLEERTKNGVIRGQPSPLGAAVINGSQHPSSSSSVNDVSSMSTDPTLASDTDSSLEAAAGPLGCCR

[7] = target: protein kinases (human kinome) (Homo sapiens, UniProt Q9BZX2); details: protein UCK2 (Q9BZX2-1); experiment wp160, 8 hr; down
[8] = target: T1, protein kinases (human kinome) (Homo sapiens, UniProt P78356); details: PIP4K2B (P78356)
T1 sequence (P78356 1-416): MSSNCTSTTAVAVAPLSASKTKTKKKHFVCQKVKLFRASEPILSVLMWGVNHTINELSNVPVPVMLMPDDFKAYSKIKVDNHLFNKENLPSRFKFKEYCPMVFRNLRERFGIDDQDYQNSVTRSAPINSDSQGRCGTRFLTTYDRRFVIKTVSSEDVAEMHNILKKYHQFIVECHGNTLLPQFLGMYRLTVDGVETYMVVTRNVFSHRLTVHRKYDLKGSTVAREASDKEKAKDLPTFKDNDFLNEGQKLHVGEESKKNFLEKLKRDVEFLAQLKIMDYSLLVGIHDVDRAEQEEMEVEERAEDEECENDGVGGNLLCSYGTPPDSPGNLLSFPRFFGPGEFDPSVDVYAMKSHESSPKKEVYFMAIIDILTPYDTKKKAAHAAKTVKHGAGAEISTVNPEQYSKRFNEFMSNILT

[9] = target: protein kinases (human kinome) (Homo sapiens, UniProt P54753)
protein kinases (human kinome) (Homo sapiens, UniProt P54753), sequence (P54753 34-998): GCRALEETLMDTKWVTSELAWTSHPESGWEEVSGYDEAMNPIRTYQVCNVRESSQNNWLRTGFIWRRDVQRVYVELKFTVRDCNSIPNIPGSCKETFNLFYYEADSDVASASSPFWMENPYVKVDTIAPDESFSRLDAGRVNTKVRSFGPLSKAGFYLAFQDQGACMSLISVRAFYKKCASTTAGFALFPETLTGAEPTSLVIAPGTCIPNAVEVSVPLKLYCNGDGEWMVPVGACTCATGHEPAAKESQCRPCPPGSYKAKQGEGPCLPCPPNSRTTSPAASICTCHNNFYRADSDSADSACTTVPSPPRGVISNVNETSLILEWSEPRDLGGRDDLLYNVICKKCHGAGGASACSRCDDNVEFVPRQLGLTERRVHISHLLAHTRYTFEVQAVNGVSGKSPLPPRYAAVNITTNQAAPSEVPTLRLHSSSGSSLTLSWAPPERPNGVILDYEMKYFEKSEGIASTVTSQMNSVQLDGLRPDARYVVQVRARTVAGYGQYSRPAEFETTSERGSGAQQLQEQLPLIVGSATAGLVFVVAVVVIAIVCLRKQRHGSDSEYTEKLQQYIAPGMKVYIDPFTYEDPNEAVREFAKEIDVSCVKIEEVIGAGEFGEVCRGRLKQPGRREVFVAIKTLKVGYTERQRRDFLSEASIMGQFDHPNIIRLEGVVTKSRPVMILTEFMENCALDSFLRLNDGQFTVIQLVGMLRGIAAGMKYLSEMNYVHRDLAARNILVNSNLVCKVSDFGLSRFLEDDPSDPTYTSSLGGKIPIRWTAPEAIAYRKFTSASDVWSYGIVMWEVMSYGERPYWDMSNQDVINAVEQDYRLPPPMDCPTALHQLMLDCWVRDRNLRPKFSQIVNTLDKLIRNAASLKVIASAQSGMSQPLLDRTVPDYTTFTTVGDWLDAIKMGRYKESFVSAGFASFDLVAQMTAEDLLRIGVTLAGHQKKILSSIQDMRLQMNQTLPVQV

[10] = target: protein kinases (human kinome) (Homo sapiens, UniProt Q9UK32)
protein kinases (human kinome) (Homo sapiens, UniProt Q9UK32), sequence (Q9UK32 whole entry): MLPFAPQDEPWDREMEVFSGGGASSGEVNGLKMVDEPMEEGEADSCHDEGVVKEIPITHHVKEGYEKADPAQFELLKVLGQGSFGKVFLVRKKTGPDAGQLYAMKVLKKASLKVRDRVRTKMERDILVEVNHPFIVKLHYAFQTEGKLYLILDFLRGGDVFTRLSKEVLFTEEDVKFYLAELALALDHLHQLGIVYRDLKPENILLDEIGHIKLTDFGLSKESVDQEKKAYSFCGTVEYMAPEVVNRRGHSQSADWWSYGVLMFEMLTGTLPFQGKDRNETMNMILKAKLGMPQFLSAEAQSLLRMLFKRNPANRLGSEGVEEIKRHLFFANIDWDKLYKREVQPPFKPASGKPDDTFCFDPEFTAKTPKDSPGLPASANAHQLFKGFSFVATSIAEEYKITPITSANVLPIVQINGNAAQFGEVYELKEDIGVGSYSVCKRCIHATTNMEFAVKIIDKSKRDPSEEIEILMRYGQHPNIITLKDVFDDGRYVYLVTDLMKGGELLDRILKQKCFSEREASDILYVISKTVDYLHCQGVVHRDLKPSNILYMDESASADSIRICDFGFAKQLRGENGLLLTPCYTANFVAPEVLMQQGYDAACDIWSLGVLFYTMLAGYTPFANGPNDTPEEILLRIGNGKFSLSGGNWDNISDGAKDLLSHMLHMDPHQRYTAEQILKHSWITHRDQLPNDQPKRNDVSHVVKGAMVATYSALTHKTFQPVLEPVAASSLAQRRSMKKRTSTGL

[11] = target: protein kinases (human kinome) (Homo sapiens, UniProt Q13131); details: for logFC PRKAA1 (Q13131): direction down
protein kinases (human kinome) (Homo sapiens, UniProt Q13131), sequence (Q13131 whole entry): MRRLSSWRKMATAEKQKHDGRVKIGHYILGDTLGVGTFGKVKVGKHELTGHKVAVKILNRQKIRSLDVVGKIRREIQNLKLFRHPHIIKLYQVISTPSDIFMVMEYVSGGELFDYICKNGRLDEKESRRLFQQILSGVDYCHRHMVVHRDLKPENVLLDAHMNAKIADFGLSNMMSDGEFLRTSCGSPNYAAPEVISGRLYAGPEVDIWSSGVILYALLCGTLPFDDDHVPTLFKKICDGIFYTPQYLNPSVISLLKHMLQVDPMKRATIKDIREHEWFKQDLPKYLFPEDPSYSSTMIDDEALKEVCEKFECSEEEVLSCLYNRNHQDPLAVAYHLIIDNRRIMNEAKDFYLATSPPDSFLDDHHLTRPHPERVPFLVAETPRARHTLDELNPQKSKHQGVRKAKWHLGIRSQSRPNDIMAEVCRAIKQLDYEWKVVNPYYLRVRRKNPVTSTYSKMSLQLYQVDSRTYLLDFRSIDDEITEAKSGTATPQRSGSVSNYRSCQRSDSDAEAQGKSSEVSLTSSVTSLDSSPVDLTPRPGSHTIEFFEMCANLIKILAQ

[12] = target: protein kinases (human kinome) (Homo sapiens, UniProt Q16644); details: experiment wp168
protein kinases (human kinome) (Homo sapiens, UniProt Q16644), sequence (Q16644 whole entry): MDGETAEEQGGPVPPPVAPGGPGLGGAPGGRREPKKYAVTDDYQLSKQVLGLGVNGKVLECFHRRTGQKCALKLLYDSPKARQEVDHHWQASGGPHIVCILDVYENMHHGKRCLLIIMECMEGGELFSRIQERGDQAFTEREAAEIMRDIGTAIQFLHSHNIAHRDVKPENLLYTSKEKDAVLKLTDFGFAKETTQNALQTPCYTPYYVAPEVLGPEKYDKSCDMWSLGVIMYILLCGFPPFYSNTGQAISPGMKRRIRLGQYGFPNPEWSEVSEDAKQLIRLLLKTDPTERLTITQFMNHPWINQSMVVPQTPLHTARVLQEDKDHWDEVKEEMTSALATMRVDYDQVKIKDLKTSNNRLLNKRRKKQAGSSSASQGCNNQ

protein kinases (human kinome) (Homo sapiens, UniProt P31749), sequence (P31749 whole entry): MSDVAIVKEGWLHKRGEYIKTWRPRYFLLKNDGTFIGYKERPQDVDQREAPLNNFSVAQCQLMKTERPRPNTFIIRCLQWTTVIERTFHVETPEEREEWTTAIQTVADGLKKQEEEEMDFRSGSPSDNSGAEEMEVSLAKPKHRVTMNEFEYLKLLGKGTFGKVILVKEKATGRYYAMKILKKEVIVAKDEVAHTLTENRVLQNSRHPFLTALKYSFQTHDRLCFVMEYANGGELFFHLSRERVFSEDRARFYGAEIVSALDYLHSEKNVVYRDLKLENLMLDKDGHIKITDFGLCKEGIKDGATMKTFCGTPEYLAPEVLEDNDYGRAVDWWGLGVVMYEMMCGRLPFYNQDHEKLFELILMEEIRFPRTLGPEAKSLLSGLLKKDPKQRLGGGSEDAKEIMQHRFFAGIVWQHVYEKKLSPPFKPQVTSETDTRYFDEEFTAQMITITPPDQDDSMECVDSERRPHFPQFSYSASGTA

SMILES: C[C@@H]1C[C@@H](O)c2ncnc(N3CCN(C(=O)[C@H](CNCCCCCCCCCCc4cccc5c4C(=O)N(C4CCC(=O)NC4=O)C5=O)c4ccc(Cl)cc4)CC3)c21 (stereo partly drawn) [INY.03.041.01]
- logFC ([1]; experiment wp118): −2.258
- logFC ([1]; experiment wp135, 4 hr): −1.225
- logFC of AKT1 (P31749) ([1]; Experiment wp135, 4 hr): −1.225
- logFC of AKT1 (P31749) ([1]; experiment wp118): −2.258

SMILES: C=CCn1c(=O)c2cnc(Nc3ccc(N4CCN(CCCNc5cccc6c5C(=O)N(C5CCC(=O)NC5=O)C6=O)CC4)cc3)nc2n1-c1cccc(C(C)(C)O)n1 (stereo not drawn) [ZNL.02.096]
- logFC PRKCI (P41743) ([2]; direction of change down): −0.5365
- logFC PRKCI ([2]; protein PRKCI (P41743), down): −0.5365
- logFC GALK2 [3]: −0.3724

SMILES: CC(C)S(=O)(=O)c1ccccc1Nc1nc(Nc2ccc(N3CCN(CCOCCOCCNC(=O)CNc4cccc5c4C(=O)N(C4CCC(=O)NC4=O)C5=O)CC3)cc2)ncc1Cl (stereo not drawn) [TL12.186]
- logFC CERK [4]: −0.3343

SMILES: Cc1ccc(C(=O)Nc2ccc(CN3CCN(CCCOCCOCCOCCNC(=O)COc4cccc5c4C(=O)N(C4CCC(=O)NC4=O)C5=O)CC3)c(C(F)(F)F)c2)cc1C#Cc1cnc2cccnn12 (stereo not drawn) [SB1.G.187]
- logFC ([5]; experiment wp114): −0.401
- logFC ([5]; experiment wp172): −0.4107
- logFC of EPHA2 (P29317) ([5]; Experiment wp114): −0.401
- logFC of EPHA2 (P29317) ([5]; Experiment wp172): −0.4107

SMILES: Cc1ccc(NC(=O)c2cccc(C(F)(F)F)c2)cc1N1Cc2cnc(Nc3ccc(N4CCN(Cc5cn(CCCCCOc6cccc7c6C(=O)N(C6CCC(=O)NC6=O)C7=O)nn5)CC4)nc3)nc2N(C)C1=O (stereo not drawn) [DB0646, N-(3-(7-((6-(4-((1-(5-((2-(2,6-Dioxopiperidin-3-yl)-1,3-dioxoisoindolin-4-yl)oxy)pentyl)-1H-1,2,3-triazol-4-yl)methyl)piperazin-1-v)pyridin-3-yl)amino)-1-methyl-2-oxo-1,4-dihydropyrimido[4,5-d]pyrimidin-3(2H)-yl)-4-methylphenyl)-3-(trifluoromethyl)benzamide]
- logFC MAPK8 (P45983) ([6]; direction down): −0.8433
- logFC MAPK8 (P45983) ([6]; direction of change down): −0.8433
- logFC MAPK8 (P45983-1) ([6]; Experiment wp172, direction down): −0.376
- logFC MAPK8 (P45983-1) ([6]; experiment wp172, direction of change down): −0.376
- logFC UCK2 [7]: −0.3246
- logFC ([8]; experiment wp045): −1.296
- logFC ([8]; experiment wp103): −0.6848
- logFC ([8]; experiment wp107): −1.024
- logFC ([8]; experiment wp117): −1.027
- logFC ([8]; experiment wp152): −1.147
- logFC ([8]; experiment wp160, 4 hr): −0.5025
- logFC ([8]; experiment wp160, 8 hr): −0.8848
- logFC EPHB3 (P54753) ([9]; Experiment wp114, direction of change down): −0.4175
- logFC EPHB3 ([9]; protein EPHB3 (P54753), experiment wp114, down): −0.4175

SMILES: CC(C)S(=O)(=O)c1ccccc1Nc1nc(Nc2ccc(N3CCN(CCOCCNC(=O)CNc4cccc5c4C(=O)N(C4CCC(=O)NC4=O)C5=O)CC3)cc2)ncc1Cl (stereo not drawn) [SK.3.91]
- logFC RPS6KA6 (Q9UK32) ([10]; Experiment wp105, direction of change down): −0.83
- logFC RPSGKA6 ([10]; protein RPSGKA6 (Q9UK32), experiment wp105, down): −0.83
- logFC of PRKAA1 (Q13131) ([11]; Experiment wp160, 2 hr): −0.3284
- logFC PRKAA1 (Q13131) ([11]; Experiment wp160, 2 hr): −0.3284
- logFC PRKAA1 (Q13131) ([11]; Experiment wp160, 4 hr): −0.6117
- logFC of PRKAA1 (Q13131) ([11]; Experiment wp172): −0.4542
- logFC PRKAA1 (Q13131) ([11]; Experiment wp172): −0.4542
- logFC of PRKAA1 (Q13131) ([11]; experiment wp160, 4 hr): −0.6117

SMILES: Cc1ccc(NC(=O)c2cccc(C(F)(F)F)c2)cc1N1Cc2cnc(Nc3ccc(N4CCN(CCCCC(=O)N[C@H](C(=O)N5C[C@H](O)C[C@H]5C(=O)N[C@@H](C)c5ccc(-c6scnc6C)cc5)C(C)(C)C)CC4)nc3)nc2N(C)C1=O [DB1113]
- logFC ([12]; MAPKAPK3 (Q16644)): −3.127
- logFC MAPKAPK3 (Q16644) ([12]; direction of change down): −3.127
